The text below walks through data of PMC11292009, “Mapping protein binding sites by photoreactive fragment pharmacophores” (Communications Chemistry, 2024).

What all share (assay type): binding
The subject of one assay is T1, KRas^G12D.
T1 construct: purchased GSK/GenScript
As to the kind of experiment: Intact MS photoaffinity labeling screen, KRas G12D (302 nm, LCMS-TOF). The note with it: for MS labeling percentage, KRas: KRas G12D, 302 nm 10 min. The method in brief: (§1)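 Labeling detected as mass additions in deconvoluted intact-protein LCMS-TOF spectra. Protein at 1 μM in PBS was first mixed with one fragment per well on ice for 15 min, followed by 10 min UV exposure at 302 nm.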

In assay [1] the test system is T2, STAT5B-NTD.
T2 construct: His-SUMO (N, cleaved yes); made in house; host or cells: E. coli BL21 RILP
As to the kind of experiment: Intact MS photoaffinity labeling screen, STAT5B-NTD (365 nm, UHPLC-MS).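 For MS labeling percentage, STAT5B: 0.17 µL of 100 mM DMSO fragment stock added to the protein sample.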 The note with it: for MS labeling percentage, STAT5B: STAT5B-NTD, 365 nm 10 min, no photocatalyst. In outline: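 Intact-protein labeling detected by UHPLC-MS in positive ion mode over m/z 100–2000. Samples were first photo-crosslinked at 365 nm for 10 min at 4 °C. Before irradiation, 7 µM STAT5B in PBS pH 7.4 was pre-incubated with probe for 1 h in the dark at room temperature.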

The test system of assay [2] is carbonic anhydrase II (CA). As to the kind of experiment: Intact protein MS photoaffinity labeling screen, carbonic anhydrase. The note with it: intact protein MS after 10 min irradiation. The method in brief: (§2)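 Fragments are tested singly per well. Protein and fragment incubate 15 min for non-covalent association, then the plate goes directly to intact protein mass spectrometry, where mass shifts matching fragment addition give the labeling %.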

A further assay concerns myoglobin (Myo). Kind of assay: Intact protein MS photoaffinity labeling screen, myoglobin. Particulars: intact protein MS after 10 min irradiation. In outline:
as §2

Assay [3] deals with CA, Lyo, Myo, BRD4-BD1, KRas G12D, STAT5B-NTD. Kind of assay: Intact MS labeling compared over all protein targets. Particulars: for Labeling of the other protein targets (vs. preferred target): each of the other targets. The protocol:
Using a plate-based format with one fragment per well, each fragment was incubated with the target proteins for 15 min to allow for the formation of non-covalent interactions. The plate was then irradiated at 302 or 365 nm for 10 min to enable the bound fragments to crosslink to the protein[26]. Finally, the results were directly analyzed from the plate using intact protein mass spectrometry by observing the mass additions that correspond to successful labeling (Fig. 2c, for labeling % values see Supplementary data). The library was first characterized against three benchmark proteins like carbonic anhydrase (CA), lysozyme (Lyo), and myoglobin (Myo).
The PhP library was screened against BRD4-BD1 and KRas^G12D as follows. Using a Labcyte Echo® 555 Liquid Handler, 150 nL of fragment solution (20 mM) was transferred into a Greiner 384 low-volume plate (white) to prepare the probe plate. The probe plate was placed on ice. 15 μL of protein stock solution (1 μM BRD4-BD1 (GSK/GenScript) or KRas^G12D (GSK/GenScript) in PBS buffer) was dispensed into wells containing fragments. The plate was left on ice for 15 min for incubation, then irradiated at 302 nm for 10 min, and centrifuged (1000 rpm, 1 min) to remove any bubbles. The plate was then analyzed by LCMS-TOF mass spectrometry (Agilent 1200 series liquid chromatography with Agilent Bio-HPLC PLRP-S (1000 Å, 5 µm × 50 mm × 1.0 mm, PL1312-1502) reverse phase HPLC column at 70 °C equipped with an Agilent G6224 time-of-flight (ToF), see Supplementary Note 2 for the full protocols). The deconvoluted spectra were analyzed using R Studio software.
During the analysis, the column temperature was maintained at a constant 60 °C, and a sample volume of 3 µL was injected for each analysis. Data acquisition was conducted in positive ion mode within the m/z 100–2000 (mass-to-charge ratio) range. For the full protocol and spectra of the hits, see Supplementary Note 2.

Another assay concerns lysozyme (Lyo). Kind of assay: Intact protein MS photoaffinity labeling screen, lysozyme. The note with it: intact protein MS after 10 min irradiation. In outline: as §2
In assay [4] the test system is T2, STAT5B-NTD. Kind of assay: Intact MS labeling screen, STAT5B-NTD conjugated with photocatalyst Ir-G2-PEG3-COOH (450 nm).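 Note: 0.14 µL of 100 mM DMSO fragment stock added to the conjugate.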 The note with it: 450 nm 10 min. In outline: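 Ir-G2-PEG3-COOH photocatalyst (10 eq) activated 30 min with EDC/NHS/BOP, then conjugated to STAT5B-NTD (7 µM) overnight at RT or 1 h at 37 °C in dark. PhP added, 1 h dark, then 450 nm irradiation 10 min at 4 °C; labeling read by intact LC-MS, positive ion mode, m/z 100–2000.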

In the next assay the test system is T3, BRD4-BD1.
T3 construct: screened the PhP library against the first bromodomain of BRD4 (BRD4-BD1); purchased GSK/GenScript
Kind of assay: Intact MS photoaffinity labeling screen, BRD4-BD1 (302 nm, LCMS-TOF). The note with it: for MS labeling percentage, BRD4: BRD4-BD1, 302 nm 10 min. The method in brief:
as §1

The mark [5] stands for this setting: hit flag 1/0, sheet PhP, photoaffinity labeling screen.
[6] abbreviates: sheet PhP, experimental hit status flag given as 0 or 1.
Where [7] appears, read: PhP library sheet "PhP", binary flag printed as 0 or 1, key not given.

Each structure is given as a SMILES string. Values joined by “and” are separate entries in the source; they are usually repeats but may differ in a detail not shown here. Equal entries are not always repeated.

Take `CC1(CCC(=O)NCc2cc3ccccc3[nH]2)N=N1` [PhP040, N1=NC1(C)CCC(=O)NCc(c2)[nH]c(c23)cccc3]: the “MS labeling percentage, KRas” value in the assay with KRas^G12D worked out at 1.9%. In addition, the “KRAS-G12D (experimental hit status)” value in the assay on KRas^G12D (setting [5]) amounted to 0. For the same compound, the “MS labeling percentage, STAT5B” value in the assay with STAT5B-NTD [1] worked out at 75%. In the assay on STAT5B-NTD [1] (setting [5]), the “STAT5B-NTD (experimental hit status)” value is on record as 0. For the same compound, the “MS labeling percentage, CA” value in assay [2] is 0.7%. Further, the “MS labeling percentage, Myo” value with myoglobin (Myo) was 0.5%. For the same compound, the “Labeling of the other protein targets (vs. preferred target)” value (shortened to “Labeling … (vs. preferred target)”) in assay [3] is > 3% and < 3%. In addition, the “MS labeling percentage, Lyo” value in the assay with lysozyme (Lyo) came to 0.3%. Besides, the “MS labeling percentage, STAT5B+photocat” value with STAT5B-NTD [4] is listed as 74%. In the assay on BRD4-BD1, the “MS labeling percentage, BRD4” value came to 2.1%. Besides, the “BRD4-BD1 (experimental hit status)” value with BRD4-BD1 (setting [5]) worked out at 0.

Turning to `CCN(CCCNC(=O)CCC1(C)N=N1)c1ccccc1` [PhP048, c1ccccc1N(CC)CCCNC(=O)CCC2(C)N=N2], the “MS labeling percentage, KRas” value in the assay on KRas^G12D was 29.4%. Further, the “KRAS-G12D (experimental hit status)” value in the assay with KRas^G12D (setting [5]) is reported as 0. Besides, the “MS labeling percentage, STAT5B” value in the assay with STAT5B-NTD [1] is listed as 2.9%. In addition, in the assay on STAT5B-NTD [1] (setting [5]), the “STAT5B-NTD (experimental hit status)” value was found to be 0. In addition, the “MS labeling percentage, CA” value in assay [2] is 0%. In addition, the “MS labeling percentage, Myo” value in the assay on myoglobin (Myo) came to 0%. The “Labeling … (vs. preferred target)” value in assay [3] is > 3% and < 3%. For the same compound, in the assay with lysozyme (Lyo), the “MS labeling percentage, Lyo” value stood at 2.1%. In the assay with STAT5B-NTD [4], the “MS labeling percentage, STAT5B+photocat” value is listed as 3.2%. In the assay with BRD4-BD1, the “MS labeling percentage, BRD4” value is listed as 0.4%. For the same compound, the “BRD4-BD1 (experimental hit status)” value with BRD4-BD1 (setting [5]) is listed as 0.

For `CC1(CCC(=O)NCc2nc3ncccc3[nH]2)N=N1` [PhP053, N1=NC1(C)CCC(=O)NCc(n2)[nH]c(c23)cccn3], in the assay with KRas^G12D, the “MS labeling percentage, KRas” value was 2%. The “KRAS-G12D (experimental hit status)” value in the assay on KRas^G12D (setting [5]) is 0. For the same compound, in the assay on STAT5B-NTD [1], the “MS labeling percentage, STAT5B” value turned out to be 0%. Besides, in the assay on STAT5B-NTD [1] (setting [5]), the “STAT5B-NTD (experimental hit status)” value came out at 0. In addition, the “MS labeling percentage, CA” value in assay [2] is reported as 1.2%. Further, the “MS labeling percentage, Myo” value in the assay on myoglobin (Myo) was 0.6%. For the same compound, the “Labeling … (vs. preferred target)” value in assay [3] is > 2% and < 2%. Further, the “MS labeling percentage, Lyo” value in the assay with lysozyme (Lyo) worked out at 0%. Besides, in the assay on STAT5B-NTD [4], the “MS labeling percentage, STAT5B+photocat” value was determined as 1%. For the same compound, the “MS labeling percentage, BRD4” value in the assay on BRD4-BD1 worked out at 6.7%. Besides, the “BRD4-BD1 (experimental hit status)” value with BRD4-BD1 (setting [5]) came to 1.

Take `Cc1c[nH]c(=O)n1-c1cccc(CNC(=O)CCC2(C)N=N2)c1` [PhP077, Cc1c[nH]c(=O)n1-c2cccc(c2)CNC(=O)CCC3(C)N=N3]: the “MS labeling percentage, KRas” value in the assay on KRas^G12D is recorded as 0.7%. The “KRAS-G12D (experimental hit status)” value in the assay on KRas^G12D (setting [6]) is given as 0. In the assay with STAT5B-NTD [1], the “MS labeling percentage, STAT5B” value was found to be 20%. In addition, the “STAT5B-NTD (experimental hit status)” value in the assay with STAT5B-NTD [1] (setting [6]) is 0. The “MS labeling percentage, CA” value in assay [2] is listed as 0.1%. Further, the “MS labeling percentage, Myo” value in the assay with myoglobin (Myo) is 0.2%. Moreover, in assay [3], the “Labeling … (vs. preferred target)” value is > 3% and < 3%. For the same compound, the “MS labeling percentage, Lyo” value with lysozyme (Lyo) is recorded as 0%. Also, the “MS labeling percentage, STAT5B+photocat” value with STAT5B-NTD [4] stood at 11.5%. The “BRD4-BD1 (experimental hit status)” value with BRD4-BD1 (setting [6]) is on record as 0.

For the compound `Cc1noc(C)c1-c1ccc(CNC(=O)CCC2(C)N=N2)cc1` [PhP080, Cc1noc(C)c1-c2ccc(cc2)CNC(=O)CCC3(C)N=N3], the “MS labeling percentage, KRas” value in the assay with KRas^G12D is 3.2%. For the same compound, the “KRAS-G12D (experimental hit status)” value in the assay with KRas^G12D (setting [7]) is 0. Further, the “STAT5B-NTD (experimental hit status)” value with STAT5B-NTD [1] (setting [7]) came to 0. Also, the “MS labeling percentage, STAT5B” value in the assay on STAT5B-NTD [1] is listed as 1%. Also, the “MS labeling percentage, CA” value in assay [2] worked out at 3%. Moreover, the “MS labeling percentage, Myo” value with myoglobin (Myo) is recorded as 3%. For the same compound, the “Labeling efficiency over all protein targets (mean ± spread)” value in assay [3] (over all protein targets) was 3.6 ± 2.2%. For the same compound, the “MS labeling percentage, Lyo” value in the assay on lysozyme (Lyo) is 7.7%. For the same compound, in the assay with STAT5B-NTD [4], the “MS labeling percentage, STAT5B+photocat” value came to 21.1%. Further, the “BRD4-BD1 (experimental hit status)” value in the assay with BRD4-BD1 (setting [7]) worked out at 0.
